The results in this text go back to ChEMBL document CHEMBL3826963, “Pharmacological protection of mitochondrial function mitigates acute limb ischemia/reperfusion injury” (Bioorg Med Chem Lett, 2016).

For assay [1], the system named is Rattus norvegicus. As to the kind of experiment: Protection against Wistar rat model of tourniquet-induced limb ischemia/reperfusion injury-induced oxidative stress assessed as skeletal muscle CAT activity per mg protein at 20 mg/kg, ip dosed 15 mins before and after 3 hrs of ischemia followed by 20 mg/kg, ip compound treatment for 1 hr before and after 4 hrs of reperfusion (reference value: 25.64 +/- 5.29 U). The assay is classed as functional.

For a further assay, the system named is Mus musculus. As to the kind of experiment: Anti-inflammatory activity in ICR mouse assessed as inhibition of xylene-induced ear edema at 1 umol/kg, po pretreated for 30 mins followed by xylene administration measured after 2 hrs relative to control. The assay is classed as functional.
Assay [2] deals with Rattus norvegicus. Briefly: Protection against Wistar rat model of tourniquet-induced limb ischemia/reperfusion injury-induced oxidative stress assessed as skeletal muscle SOD activity per mg protein at 20 mg/kg, ip dosed 15 mins before and after 3 hrs of ischemia followed by 20 mg/kg, ip compound treatment for 1 hr before and after 4 hrs of reperfusion (reference value: 0.41 +/- 0.09 U). The assay is classed as functional.

The subject of assay [3] is Rattus norvegicus. As to the kind of experiment: Protection against Wistar rat model of tourniquet-induced limb ischemia/reperfusion injury-induced oxidative stress assessed as skeletal muscle MDA level at 20 mg/kg, ip dosed 15 mins before and after 3 hrs of ischemia followed by 20 mg/kg, ip compound treatment for 1 hr before and after 4 hrs of reperfusion (reference value: 45.78 +/- 4.33 nmol/g). The format is functional.

The subject of assay [4] is PC-12. As to the kind of experiment: Antioxidant activity in rat PC12 cells assessed as scavenging of hypoxanthine/xanthine oxidase-induced O2 radical by measuring increase in cell survival at 12.5 to 200 uM preincubated for 1 hr followed by hypoxanthine/xanthine oxidase addition by MTT assay. The format is functional, cell-based.
The test system of assay [5] is Rattus norvegicus. Briefly: Antithrombotic activity in Wistar rat model of thread-induced arterial thrombosis assessed as thrombus weight at 5 umol/kg measured after 2 to 3 hrs (reference value: 42.1 +/- 3.2 mg).
Assay [6] relates to PC-12. Briefly: Antioxidant activity in rat PC12 cells assessed as scavenging of H2O2/Fe2+ ion-induced hydroxyl radical by measuring increase in cell survival at 12.5 to 200 uM preincubated for 1 hr followed by H2O2/Fe2+ ion addition measured after 1 hr by MTT assay. The assay is classed as functional, cell-based. (Formazan colour is commonly taken as a measure of viable cells.)

Assay [7] has as its system Rattus norvegicus. As to the kind of experiment: Anti-inflammatory activity in Wistar rat model of tourniquet-induced limb ischemia/reperfusion injury assessed as serum IL-6 level at 20 mg/kg, ip dosed 15 mins before and after 3 hrs of ischemia followed by 20 mg/kg, ip compound treatment for 1 hr before and after 4 hrs of reperfusion by ELISA (reference value: 580.3 +/- 95.2 pg/ml). The format is functional. Background: ELISA stands for enzyme-linked immunosorbent assay.

The subject of assay [8] is PC-12. Briefly: Antioxidant activity in rat PC12 cells assessed as scavenging of SNAP-induced NO radical by measuring increase in cell survival at 12.5 to 200 uM preincubated for 1 hr followed by SNAP addition measured after 2 hrs by MTT assay. The format is functional, cell-based.
Assay [9] concerns Rattus norvegicus. Briefly: Anti-inflammatory activity in Wistar rat model of tourniquet-induced limb ischemia/reperfusion injury assessed as serum TNF-alpha level at 20 mg/kg, ip dosed 15 mins before and after 3 hrs of ischemia followed by 20 mg/kg, ip compound treatment for 1 hr before and after 4 hrs of reperfusion by ELISA (reference value: 185.1 +/- 23.5 pg/ml). The assay is classed as functional.

Assay [10] deals with Rattus norvegicus. As to the kind of experiment: Protection against Wistar rat model of tourniquet-induced limb ischemia/reperfusion injury-induced oxidative stress assessed as skeletal muscle GSH level at 20 mg/kg, ip dosed 15 mins before and after 3 hrs of ischemia followed by 20 mg/kg, ip compound treatment for 1 hr before and after 4 hrs of reperfusion (reference value: 0.82 +/- 0.19 umol/g). The assay is classed as functional.

The source made the active and inactive calls. No cut-off for these calls is given here. Where a SMILES comes first, the peptide text is derived from it.

For `COC(=O)COc1ccc(/C=C/C(=O)CC(=O)/C=C/c2ccc(O)c(OC)c2)cc1OC`, the Activity with Rattus norvegicus [1] stood at 44.6 U/mg; in the assay with Rattus norvegicus [2], 0.64 U/mg; in the assay on Rattus norvegicus [3], 32.47 nmol/g; with Rattus norvegicus [5], 39.7 mg; in the assay on Rattus norvegicus [7], 450.8 pg/mL; in the assay on Rattus norvegicus [9], 155.4 pg/mL. The Activity in the assay with Rattus norvegicus [10] was 1.41 µmol/g. For the same compound, the inhibition in vivo at 1 µmol/kg in the assay on Mus musculus worked out at 23.3%. Besides, the outcome in the assay on PC-12 [4] and in the assay on PC-12 [8] was inactive. Also, the result in the assay with PC-12 [6] was Active.
As to `COc1ccc(/C=C/C(=O)CC(=O)/C=C/c2ccc(OCC(=O)N[C@@H](CCCCN)C(=O)O)c(OC)c2)cc1OC`, the inhibition in vivo at 1 µmol/kg with Mus musculus amounted to 39.3%. In addition, the Activity in the assay with Rattus norvegicus [5] is given as 38.3 mg.
Turning to `COC(=O)COc1ccc(/C=C/C(=O)CC(=O)/C=C/c2ccc(OC)c(OC)c2)cc1OC`, the Activity in the assay on Rattus norvegicus [1] was 42.4 U/mg; in the assay with Rattus norvegicus [2], 0.58 U/mg; in the assay on Rattus norvegicus [3], 30.12 nmol/g; with Rattus norvegicus [5] it was 40.1 mg; in the assay with Rattus norvegicus [7] it was 472.5 pg/mL; with Rattus norvegicus [9], 160.7 pg/mL. Moreover, the Activity with Rattus norvegicus [10] is 1.55 µmol/g. In the assay on Mus musculus, the inhibition in vivo at 1 µmol/kg worked out at 25.1%. For the same compound, the outcome in the assay on PC-12 [4] and in the assay with PC-12 [8] was inactive. Moreover, the outcome with PC-12 [6] was Active.
Consider `C[C@H](NC(=O)[C@@H]1CCCN1)C(=O)N[C@@H](CCCCN)C(=O)O` (H-Pro-Ala-Lys-OH), for which the Activity in the assay on Rattus norvegicus [5] is reported as 32.8 mg.
For `CC(=O)Oc1ccccc1C(=O)O` [ASPIRIN], the inhibition in vivo at 1 µmol/kg with Mus musculus came to 50.3%. For the same compound, the Activity with Rattus norvegicus [5] is 28.5 mg.
The like results for `COc1cc(/C=C/C(=O)CC(=O)/C=C/c2ccc(OCC(=O)N[C@@H](CCCCN)C(=O)O)c(OC)c2)ccc1O` were, in that order, 41.1% and 34.5 mg.

Broadly, the inhibition in vivo is the percentage by which the read-out fell short of the control.
